In PubChem BioAssay AID328 (DTP/NCI, 2004) one finds T/C data, which are given here for 15 molecules.

Several values for one entry are separate records, joined by “and”; a condition that tells them apart may be missing. Identical values can stand only once. Toxic doses and inconclusive results are not listed. Residues, ends and D or L forms follow the SMILES beside them. *: point of attachment. Boc = CC(C)(C)OC(=O)*; OBn = c1ccc(CO*)cc1

The subject of this assay is BDF1 mice, P388 leukemia ip, median survival T/C. Kind of assay: NCI In Vivo Anticancer Drug Screen. Data for tumor model P388 Leukemia (intraperitoneal) in B6D2F1 (BDF1) mice. The conditions noted are these: endpoint: median survival time, higher = longer survival. An outline of the steps:
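Steps: implant the tumour, treat one group with compound and another with vehicle, record survival, then divide treated by control.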

Where [1] appears, read: dose: 100.0 mg/kg/injection, schedule: Q01DX009 (ip), vehicle: water.
The mark [2] stands for this setting: dose: 200.0 mg/kg/injection, schedule: Q01DX009 (ip), vehicle: water.
Setting [3] is: dose: 400.0 mg/kg/injection, schedule: Q01DX009 (ip), vehicle: water.
Where [4] appears, read: dose: 50.0 mg/kg/injection, schedule: Q04DX003 (ip), vehicle: Klucel (hydroxypropylcellulose) (HPC).
[5] abbreviates: dose: 100.0 mg/kg/injection, schedule: Q01DX009 (ip), vehicle: saline with Tween-80.
The mark [6] stands for this setting: dose: 100.0 mg/kg/injection, schedule: Q04DX003 (ip), vehicle: Klucel (hydroxypropylcellulose) (HPC).
Where [7] appears, read: dose: 200.0 mg/kg/injection, schedule: Q04DX003 (ip), vehicle: Klucel (hydroxypropylcellulose) (HPC).
Setting [8] is: dose: 400.0 mg/kg/injection, schedule: Q04DX003 (ip), vehicle: Klucel (hydroxypropylcellulose) (HPC).
Where [9] appears, read: dose: 200.0 mg/kg/injection, schedule: Q01DX009 (ip), vehicle: saline with Tween-80.
Where [10] appears, read: dose: 400.0 mg/kg/injection, schedule: Q01DX009 (ip), vehicle: saline with Tween-80.
[11] abbreviates: dose: 200.0 mg/kg/injection, schedule: Q04DX003 (ip), vehicle: saline with Tween-80.

As for `O=C1C(c2ccccc2)=C(c2ccccc2)C(c2ccccc2)=C1c1ccccc1`, the T/C is 88 % of control (dose: 0.78 mg/kg/injection, schedule: Q04DX003 (ip), vehicle: water); 103 % of control (dose: 1.56 mg/kg/injection, schedule: Q01DX009 (ip), vehicle: water); 95 % of control (dose: 1.56 mg/kg/injection, schedule: Q04DX003 (ip), vehicle: water); 94 % of control (dose: 3.12 mg/kg/injection, schedule: Q01DX009 (ip), vehicle: water); 88 % of control (dose: 3.12 mg/kg/injection, schedule: Q04DX003 (ip), vehicle: water); 97 % of control (dose: 6.25 mg/kg/injection, schedule: Q01DX009 (ip), vehicle: water). The T/C is 106 % of control (dose: 6.25 mg/kg/injection, schedule: Q04DX003 (ip), vehicle: water); 94 % of control (dose: 12.5 mg/kg/injection, schedule: Q01DX009 (ip), vehicle: water); 100 % of control (dose: 12.5 mg/kg/injection, schedule: Q04DX003 (ip), vehicle: water); 97 % of control (dose: 25.0 mg/kg/injection, schedule: Q01DX009 (ip), vehicle: water); 97 % of control (dose: 50.0 mg/kg/injection, schedule: Q01DX009 (ip), vehicle: water); 101 % of control under setting [1]. Further, the T/C was 91 % of control under setting [2] and 87 % of control under setting [3].
Regarding `CCCCN(C)N=Nc1ccccc1C(N)=O`, the T/C under setting [4] was 100 % of control; the T/C under setting [5] is 120 % of control; the T/C under setting [6] is 97 % of control; the T/C under setting [7] is 109 % of control; the T/C under setting [8] was 103 % of control.
`Nc1ccccc1SC1CC(=O)N(c2ccc(I)cc2)C1=O` (stereo not given): the T/C is, setting by setting: (dose: 12.5 mg/kg/injection, schedule: Q04DX003 (ip), vehicle: Klucel (hydroxypropylcellulose) (HPC)) 95 % of control; (dose: 25.0 mg/kg/injection, schedule: Q01DX001 (ip), vehicle: Klucel (hydroxypropylcellulose) (HPC)) 108 % of control; (dose: 25.0 mg/kg/injection, schedule: Q04DX003 (ip), vehicle: Klucel (hydroxypropylcellulose) (HPC)) 95 % of control; (dose: 50.0 mg/kg/injection, schedule: Q01DX001 (ip), vehicle: Klucel (hydroxypropylcellulose) (HPC)) 104 % of control; under setting [4], 100 % of control; (dose: 100.0 mg/kg/injection, schedule: Q01DX001 (ip), vehicle: Klucel (hydroxypropylcellulose) (HPC)) 108 % of control. Also, under setting [6], the T/C was 112 % of control.
For the molecule `Nc1ccc2c(c1)OCO2`, the T/C is 104 % of control (dose: 100.0 mg/kg/injection, schedule: Q01DX009 (sc), vehicle: olive oil, sesame oil, peanut oil); 91 % of control (dose: 100.0 mg/kg/injection, schedule: Q04DX003 (sc), vehicle: olive oil, sesame oil, peanut oil); 95 % of control (dose: 200.0 mg/kg/injection, schedule: Q04DX003 (sc), vehicle: olive oil, sesame oil, peanut oil); 116 % of control (dose: 400.0 mg/kg/injection, schedule: Q04DX003 (sc), vehicle: olive oil, sesame oil, peanut oil).
As for `ClC1=C(Br)C(Br)(Br)C(=C(Br)Br)C1(Br)Br`, the T/C is, setting by setting: under setting [5], 100 % of control; under setting [6], 90 % of control; under setting [9], 109 % of control; under setting [10], 104 % of control; under setting [8], 100 % of control.
For `O=C(Cn1ccc(O)cc1=O)N1CCOCC1`, the T/C under setting [1] was 105 % of control, the T/C under setting [2] is 104 % of control and the T/C under setting [3] is 104 % of control.
`CC(C)(C)OC(=O)NCC(=O)NCC(=O)NCC(=O)OCc1ccccc1` (Boc-Gly-Gly-Gly-OBn): the T/C is 95 % of control (dose: 50.0 mg/kg/injection, schedule: Q01DX005 (ip), vehicle: saline with Tween-80) and 98 % of control (dose: 100.0 mg/kg/injection, schedule: Q01DX005 (ip), vehicle: saline with Tween-80).
As for `O=[N+]([O-])c1ccc(Sc2ccc([N+](=O)[O-])cc2)cc1`, the T/C runs as follows: (dose: 50.0 mg/kg/injection, schedule: Q01DX009 (ip), vehicle: saline with Tween-80) 90 % of control; (dose: 50.0 mg/kg/injection, schedule: Q04DX003 (ip), vehicle: saline with Tween-80) 100 % of control; under setting [5], 95 % of control; under setting [9], 90 % of control; under setting [11], 100 % of control.
For `c1cc2c(cc1CNC1=NCCO1)OCO2`, the T/C was 100 % of control (dose: 100.0 mg/kg/injection, schedule: Q01DX001 (ip), vehicle: saline with Tween-80); 95 % of control (dose: 200.0 mg/kg/injection, schedule: Q01DX001 (ip), vehicle: saline with Tween-80); 118 % of control (dose: 400.0 mg/kg/injection, schedule: Q01DX001 (ip), vehicle: saline with Tween-80).
For the molecule `CC1(C)N=C(N)N=C(N)N1c1ccc(CCCCc2ccc(Cl)cc2Cl)cc1`, the T/C was 118 % of control (dose: 4.0 mg/kg/injection, schedule: Q01DX009 (ip), vehicle: saline); 91 % of control (dose: 25.0 mg/kg/injection, schedule: Q01DX002 (ip), vehicle: saline); 103 % of control (dose: 50.0 mg/kg/injection, schedule: Q01DX002 (ip), vehicle: saline).
Consider `CC(=O)CC(=O)NC1CCCCC1`, for which the T/C runs as follows: under setting [5], 100 % of control; under setting [9], 100 % of control; under setting [10], 100 % of control.
As for `O=c1c2ccccc2nc(-c2ccccc2Cl)n1/N=C/c1cccc([N+](=O)[O-])c1`, the T/C is 93 % of control under setting [5] and 100 % of control under setting [9].
Take `CC1(C)CC(=O)NN1C(=O)c1ccccc1`: the T/C by setting is: (dose: 100.0 mg/kg/injection, schedule: Q04DX003 (ip), vehicle: saline with Tween-80) 100 % of control; under setting [11], 105 % of control; (dose: 400.0 mg/kg/injection, schedule: Q04DX003 (ip), vehicle: saline with Tween-80) 95 % of control.
Consider `S`, for which the T/C was 100 % of control (dose: 100.0 mg/kg/injection, schedule: Q01DX009 (ip), vehicle: Klucel (hydroxypropylcellulose) (HPC)); 86 % of control under setting [6]; 110 % of control (dose: 200.0 mg/kg/injection, schedule: Q01DX009 (ip), vehicle: Klucel (hydroxypropylcellulose) (HPC)); 100 % of control under setting [7]; 100 % of control under setting [8].
For the molecule `COC(C(=O)C(O)C(C)O)C1CC2C=C3C=C(OC4CC(OC5CC(O)C(OC)C(C)O5)C(OC(C)=O)C(C)O4)C(C)C(=O)C3=C(O)C2=C(O)C1OC1CC(OC2CC(OC3CC(C)(O)C(OC(=O)C(C)C)C(C)O3)C(O)C(C)O2)C(O)C(C)O1` (stereo not given), the T/C was 150 % of control (dose: 0.12 mg/kg/injection, schedule: Q01DX001 (ip), vehicle: other); 204 % of control (dose: 0.25 mg/kg/injection, schedule: Q01DX001 (ip), vehicle: other); 111 % of control (dose: 12.5 micrograms/kg/injection, schedule: Q01DX009 (ip), vehicle: saline); 111 % of control (dose: 25.0 micrograms/kg/injection, schedule: Q01DX009 (ip), vehicle: saline); 165 % of control (dose: 31.2 micrograms/kg/injection, schedule: Q01DX001 (ip), vehicle: saline); 190 % of control (dose: 31.2 micrograms/kg/injection, schedule: Q04DX003 (ip), vehicle: saline). Also, the T/C was 190 % of control (dose: 31.2 micrograms/kg/injection, schedule: Q08DX002 (ip), vehicle: saline); 111 % of control (dose: 50.0 micrograms/kg/injection, schedule: Q01DX009 (ip), vehicle: saline); 150 % of control and 195 % of control (dose: 62.5 micrograms/kg/injection, schedule: Q01DX001 (ip), vehicle: saline); 210 % of control (dose: 62.5 micrograms/kg/injection, schedule: Q08DX002 (ip), vehicle: saline); 111 % of control (dose: 100.0 micrograms/kg/injection, schedule: Q01DX009 (ip), vehicle: saline); 230 % of control (dose: 125.0 micrograms/kg/injection, schedule: Q01DX001 (ip), vehicle: saline). The T/C was 185 % of control (dose: 125.0 micrograms/kg/injection, schedule: Q08DX002 (ip), vehicle: saline); 240 % of control and 150 % of control (dose: 250.0 micrograms/kg/injection, schedule: Q01DX001 (ip), vehicle: saline); 108 % of control (dose: 500.0 micrograms/kg/injection, schedule: Q01DX001 (ip), vehicle: saline); 100 % of control (dose: 500.0 micrograms/kg/injection, schedule: Q08DX002 (ip), vehicle: saline).
